According to PubChem BioAssay AID1259407 (Chemical Carcinogenesis Research Information System (CCRIS), 2018):
Active and inactive are the calls of the source. How the calls were made is not given here.

Test system: CCRIS mutagenicity, Ames/micronucleus/aberration tests
Assay: CCRIS mutagenicity studies
[1] = Test System: AMES SALMONELLA TYPHIMURIUM, Strain/Indicator: TA97, Metabolic Activation: NONE, Method: PREINCUBATION

**Q.** `Oc1ccccc1O` was tested. Which mutagenic call (End Point: IN VITRO CHROMOSOMAL ABERRATIONS, Test System: CHINESE HAMSTER V79 CELLS, Metabolic Activation: NONE) did it give?
**A.** active; positive at ph 7.4 and 8.0

**Q.** What about the mutagenic call (End Point: IN VITRO MICRONUCLEUS, Test System: CHINESE HAMSTER LUNG (CHL)/IU CELLS, Metabolic Activation: NONE) of the same compound?
**A.** active; positive

**Q.** And the mutagenic call [1]?
**A.** inactive; negative

**Q.** And the mutagenic call (Test System: AMES SALMONELLA TYPHIMURIUM, Strain/Indicator: TA97, Metabolic Activation: RAT, LIVER, S-9, AROCLOR 1254, Method: PREINCUBATION)?
**A.** inactive; negative

**Q.** What about the mutagenic call (Test System: AMES SALMONELLA TYPHIMURIUM, Strain/Indicator: TA97, Metabolic Activation: RAT, LIVER, S-9, PHENOBARBITAL, Method: PREINCUBATION) of the same compound?
**A.** inactive; negative

**Q.** And the mutagenic call (Test System: AMES SALMONELLA TYPHIMURIUM, Strain/Indicator: TA98, Metabolic Activation: HAMSTER, LIVER, S-9, AROCLOR 1254, Method: PREINCUBATION)?
**A.** inactive; negative

**Q.** And the mutagenic call (Test System: AMES SALMONELLA TYPHIMURIUM, Strain/Indicator: TA98, Metabolic Activation: NONE)?
**A.** inactive; negative

**Q.** What about the mutagenic call (Test System: AMES SALMONELLA TYPHIMURIUM, Strain/Indicator: TA98, Metabolic Activation: NONE, Method: PREINCUBATION) of the same compound?
**A.** inactive; negative

**Q.** And the mutagenic call (Test System: AMES SALMONELLA TYPHIMURIUM, Strain/Indicator: TA98, Metabolic Activation: RAT, LIVER, S-9, AROCLOR 1254, Method: PREINCUBATION)?
**A.** inactive; negative

**Q.** And the mutagenic call (Test System: AMES SALMONELLA TYPHIMURIUM, Strain/Indicator: TA98, Metabolic Activation: RAT, LIVER, S-9, PHENOBARBITAL, Method: PREINCUBATION)?
**A.** inactive; negative

**Q.** And the mutagenic call (Test System: AMES SALMONELLA TYPHIMURIUM, Strain/Indicator: TA98, Metabolic Activation: S-9)?
**A.** inactive; negative

**Q.** What about the mutagenic call (Test System: AMES SALMONELLA TYPHIMURIUM, Strain/Indicator: TA100, Metabolic Activation: HAMSTER, LIVER, S-9, AROCLOR 1254, Method: PREINCUBATION) of the same compound?
**A.** inactive; negative

**Q.** And the mutagenic call (Test System: AMES SALMONELLA TYPHIMURIUM, Strain/Indicator: TA100, Metabolic Activation: NONE, Method: FLUCTUATION TEST)?
**A.** active; positive

**Q.** And the mutagenic call (Test System: AMES SALMONELLA TYPHIMURIUM, Strain/Indicator: TA100, Metabolic Activation: NONE, Method: PREINCUBATION)?
**A.** inactive; negative

**Q.** And the mutagenic call (Test System: AMES SALMONELLA TYPHIMURIUM, Strain/Indicator: TA100, Metabolic Activation: RAT, LIVER, S-9, AROCLOR 1254, Method: PREINCUBATION)?
**A.** inactive; negative

**Q.** And the mutagenic call (Test System: AMES SALMONELLA TYPHIMURIUM, Strain/Indicator: TA100, Metabolic Activation: RAT, LIVER, S-9, PCB, Method: FLUCTUATION TEST)?
**A.** active; positive

**Q.** What about the mutagenic call (Test System: AMES SALMONELLA TYPHIMURIUM, Strain/Indicator: TA100, Metabolic Activation: RAT, LIVER, S-9, PHENOBARBITAL, Method: PREINCUBATION) of the same compound?
**A.** inactive; negative

**Q.** What about the mutagenic call (Test System: AMES SALMONELLA TYPHIMURIUM, Strain/Indicator: TA102, Metabolic Activation: NONE, Method: PREINCUBATION) of the same compound?
**A.** inactive; negative

**Q.** What about the mutagenic call (Test System: AMES SALMONELLA TYPHIMURIUM, Strain/Indicator: TA102, Metabolic Activation: RAT, LIVER, S-9, AROCLOR 1254, Method: PREINCUBATION) of the same compound?
**A.** inactive; negative

**Q.** And the mutagenic call (Test System: AMES SALMONELLA TYPHIMURIUM, Strain/Indicator: TA104, Metabolic Activation: NONE, Method: PREINCUBATION)?
**A.** inactive; negative

**Q.** What about the mutagenic call (Test System: AMES SALMONELLA TYPHIMURIUM, Strain/Indicator: TA104, Metabolic Activation: RAT, LIVER, S-9, AROCLOR 1254, Method: PREINCUBATION) of the same compound?
**A.** inactive; negative

**Q.** And the mutagenic call (Test System: AMES SALMONELLA TYPHIMURIUM, Strain/Indicator: TA1535, Metabolic Activation: HAMSTER, LIVER, S-9, AROCLOR 1254, Method: PREINCUBATION)?
**A.** inactive; negative

**Q.** What about the mutagenic call (Test System: AMES SALMONELLA TYPHIMURIUM, Strain/Indicator: TA1535, Metabolic Activation: NONE, Method: PREINCUBATION) of the same compound?
**A.** inactive; negative

**Q.** And the mutagenic call (Test System: AMES SALMONELLA TYPHIMURIUM, Strain/Indicator: TA1535, Metabolic Activation: RAT, LIVER, S-9, AROCLOR 1254, Method: PREINCUBATION)?
**A.** inactive; negative

**Q.** And the mutagenic call (Test System: AMES SALMONELLA TYPHIMURIUM, Strain/Indicator: TA1537, Metabolic Activation: HAMSTER, LIVER, S-9, AROCLOR 1254, Method: PREINCUBATION)?
**A.** inactive; negative

**Q.** What about the mutagenic call (Test System: AMES SALMONELLA TYPHIMURIUM, Strain/Indicator: TA1537, Metabolic Activation: NONE, Method: PREINCUBATION) of the same compound?
**A.** inactive; negative

**Q.** And the mutagenic call (Test System: AMES SALMONELLA TYPHIMURIUM, Strain/Indicator: TA1537, Metabolic Activation: RAT, LIVER, S-9, AROCLOR 1254, Method: PREINCUBATION)?
**A.** inactive; negative

**Q.** And the mutagenic call (Test System: Ames Salmonella typhimurium, Strain/Indicator: TA98, Metabolic Activation: None, Method: Preincubation)?
**A.** inactive; negative

**Q.** And the mutagenic call (Test System: Ames Salmonella typhimurium, Strain/Indicator: TA98, Metabolic Activation: Rat, Liver, S9, Sodium phenobarbital and 5,6-benzoflavone, Method: Preincubation)?
**A.** inactive; negative

**Q.** And the mutagenic call (Test System: Ames Salmonella typhimurium, Strain/Indicator: TA100, Metabolic Activation: None, Method: Preincubation)?
**A.** inactive; negative

**Q.** And the mutagenic call (Test System: Ames Salmonella typhimurium, Strain/Indicator: TA100, Metabolic Activation: Rat, Liver, S9, Sodium phenobarbital and 5,6-benzoflavone, Method: Preincubation)?
**A.** inactive; negative

**Q.** What about the mutagenic call (Test System: Ames Salmonella typhimurium, Strain/Indicator: TA1535, Metabolic Activation: None, Method: Preincubation) of the same compound?
**A.** inactive; negative

**Q.** And the mutagenic call (Test System: Ames Salmonella typhimurium, Strain/Indicator: TA1535, Metabolic Activation: Rat, Liver, S9, Sodium phenobarbital and 5,6-benzoflavone, Method: Preincubation)?
**A.** inactive; negative

**Q.** And the mutagenic call (Test System: Ames Salmonella typhimurium, Strain/Indicator: TA1537, Metabolic Activation: None, Method: Preincubation)?
**A.** inactive; negative

**Q.** What about the mutagenic call (Test System: Ames Salmonella typhimurium, Strain/Indicator: TA1537, Metabolic Activation: Rat, Liver, S9, Sodium phenobarbital and 5,6-benzoflavone, Method: Preincubation) of the same compound?
**A.** inactive; negative

**Q.** What about the mutagenic call (Test System: CHINESE HAMSTER V-79, Strain/Indicator: V-79/6-THIOGUANINE, Metabolic Activation: NONE) of the same compound?
**A.** active; positive

**Q.** What about the mutagenic call (Test System: E. coli, Strain/Indicator: WP2uvrA/pKM101, Metabolic Activation: None, Method: Preincubation) of the same compound?
**A.** inactive; negative

**Q.** What about the mutagenic call (Test System: E. coli, Strain/Indicator: WP2uvrA/pKM101, Metabolic Activation: Rat, Liver, S9, Sodium phenobarbital and 5,6-benzoflavone, Method: Preincubation) of the same compound?
**A.** inactive; negative

**Q.** And the mutagenic call (Test System: E. coli, Strain/Indicator: Wp2uvrA/pKM101, Metabolic Activation: None, Method: Preincubation)?
**A.** inactive; negative

**Q.** What about the mutagenic call (Test System: E. coli, Strain/Indicator: Wp2uvrA/pKM101, Metabolic Activation: Rat, Liver, S9, Sodium phenobarbital and 5,6-benzoflavone, Method: Preincubation) of the same compound?
**A.** inactive; negative

**Q.** And the mutagenic call (Test System: MOUSE LYMPHOMA, Strain/Indicator: L5178Y (TK+/TK-), Metabolic Activation: NONE, Method: SUSPENSION/PLATE)?
**A.** active; positive

**Q.** What about the mutagenic call (Test System: UDS SYRIAN HAMSTER EMBRYO (SHE) CELLS, Strain/Indicator: THY INCORP, Metabolic Activation: NONE, Method: LIQUID SCINTILLATION COUNTING) of the same compound?
**A.** active; positive

**Q.** For `COc1cc(OC)c2c(=O)c3c(O)ccc(OC)c3oc2c1`, which mutagenic call [1] is on record?
**A.** inactive; negative

**Q.** What about the mutagenic call (Test System: AMES SALMONELLA TYPHIMURIUM, Strain/Indicator: TA97, Metabolic Activation: RAT, LIVER, S-9, PHENOBARBITAL AND 5,6-BENZOFLAVONE, Method: PREINCUBATION) of the same compound?
**A.** active; positive

**Q.** What about the mutagenic call (Test System: AMES SALMONELLA TYPHIMURIUM, Strain/Indicator: TA98, Metabolic Activation: RAT, LIVER, S-9, PHENOBARBITAL AND 5,6-BENZOFLAVONE, Method: PREINCUBATION) of the same compound?
**A.** inactive; negative

**Q.** And the mutagenic call (Test System: AMES SALMONELLA TYPHIMURIUM, Strain/Indicator: TA100, Metabolic Activation: RAT, LIVER, S-9, PHENOBARBITAL AND 5,6-BENZOFLAVONE, Method: PREINCUBATION)?
**A.** inactive; negative

**Q.** What about the mutagenic call (Test System: AMES SALMONELLA TYPHIMURIUM, Strain/Indicator: TA2637, Metabolic Activation: RAT, LIVER, S-9, PHENOBARBITAL AND 5,6-BENZOFLAVONE, Method: PREINCUBATION) of the same compound?
**A.** active; positive

**Q.** How did the mutagenic call (Test System: AMES SALMONELLA TYPHIMURIUM, Strain/Indicator: TA98, Metabolic Activation: NONE, Method: STANDARD PLATE) turn out when `O=[N+]([O-])c1ccc2c3c(cccc13)-c1cc3ccccc3cc1-2` was run?
**A.** active; positive
